Data from patent US20200069691A1, “HETEROCYCLIC COMPOUNDS AS HIV PROTEASE INHIBITORS” (Merck Sharp & Dohme Corp., priority 2016, published 2020).

target: T1, wild-type HIV-1 protease (Human immunodeficiency virus type 1 group M subtype B, UniProt P04585); experiment: Assay for Inhibition of Microbial Expressed HIV Protease (peptide substrate cleavage, LC-MS/MS readout); format: biochemical; conditions: E. coli expressed wild-type HIV-1 protease, mean of at least two independent experiments, read-out: HIV Pr Enzyme HIV1 PR IC50
T1 construct: Escherichia coli expressed wild-type HIV-1 protease protein
Outline: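 E. coli-expressed wild-type HIV-1 protease ([…]) was preincubated with inhibitor 30 min at room temperature in pH 5.5 acetate buffer (100 mM NaCl, 0.1% BSA). Then 400 μM octapeptide substrate was added and reacted 1 h at 30 °C; inhibition came from LC-MS/MS product peak areas, mean of ≥2 experiments.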

Row | SMILES | IC50
1 | CN(C)C(=O)C1c2ccccc2CN1C(=O)c1cccc(CN2C(=N)NC(c3ccccc3)(c3ccccc3)C2=O)c1 (stereo not drawn) [Compound 299, 2-({3-[(2-imino-5-oxo-4,4-diphenylimidazolidin-1-yl)methyl]phenyl}carbonyl)-N,N-dimethyl-2,3-dihydro-1H-isoindole-1-carboxamide] | 0.0439 µM
2 | CC1(C)CN(C(=O)c2cccc(CN3C(=N)NC(c4ccccc4)(c4ccccc4)C3=O)c2)Cc2nnc(C(F)(F)F)n21 [Compound 300, 3-(3-{[5,5-dimethyl-3-(trifluoromethyl)-5,6-dihydro[1,2,4]triazolo[4,3-a]pyrazin-7(8H)-yl]carbonyl}benzyl)-2-imino-5,5-diphenylimidazolidin-4-one] | 0.044 µM
3 | N=C1NC(c2ccccc2)(c2ccccc2)C(=O)N1Cc1cccc(C(=O)N2CCn3nc(C(F)(F)F)nc3C2)c1 [Compound 301, 2-imino-5,5-diphenyl-3-(3-{[2-(trifluoromethyl)-5,6-dihydro[1,2,4]triazolo[1,5-a]pyrazin-7(8H)-yl]carbonyl}benzyl) imidazolidin-4-one] | 0.0452 µM
4 | CCCC1(c2ccccc2)NC(=N)N(Cc2cccc(C(=O)N3Cc4cncnc4C3)c2)C1=O (stereo not drawn) [Compound 302, 3-[3-(5,7-dihydro-6H-pyrrolo[3,4-d]pyrimidin-6-ylcarbonyl)benzyl]-2-imino-5-phenyl-5-propylimidazolidin-4-one] | 0.0454 µM
5 | CC(C)CC1(c2ccccc2)NC(=N)N(Cc2cccc(C(=O)N3CCN(c4ncccn4)CC3)c2)C1=O (stereo not drawn) [Compound 303, 2-imino-5-(2-methylpropyl)-5-phenyl-3-{3-[(4-pyrimidin-2-ylpiperazin-1-yl)carbonyl]benzyl} imidazolidin-4-one] | 0.0459 µM
6 | CC(C)CCC1(c2cccc(-c3cccnc3)c2)NC(=N)N(Cc2cccc(C(=O)N3Cc4nccnc4C3)c2)C1=O (stereo not drawn) [Compound 304, 3-[3-(5,7-dihydro-6H-pyrrolo[3,4-b]pyrazin-6-ylcarbonyl)benzyl]-2-imino-5-(3-methylbutyl)-5-(3-pyridin-3-ylphenyl)imidazolidin-4-one] | 0.0459 µM
7 | COC(=O)N1CCN(C(=O)c2cccc(CN3C(=N)NC(c4ccc(F)cc4)(c4ccc(F)cc4)C3=O)c2)CC1 [Compound 305, methyl 4-[(3-{[4,4-bis(4-fluorophenyl)-2-imino-5-oxoimidazolidin-1-yl]methyl}phenyl)carbonyl] piperazine-1-carboxylate] | 0.0641 µM
8 | CN(C)C(=O)c1cccc(C2(c3ccc(F)cc3)NC(=N)N(Cc3cccc(C(=O)N4Cc5ccccc5C4)c3)C2=O)c1 (stereo not drawn) [Compound 306, 3-{1-[3-(1,3-dihydro-2H-isoindol-2-ylcarbonyl)benzyl]-4-(4-fluorophenyl)-2-imino-5-oxoimidazolidin-4-yl}-N,N-dimethylbenzamide] | 0.0474 µM
9 | N=C1NC(c2ccccc2)(c2ccccc2)C(=O)N1Cc1cccc(C(=O)N2CCN(c3ccccn3)CC2)c1 [Compound 307, 2-imino-5,5-diphenyl-3-{3-[(4-pyridin-2-ylpiperazin-1-yl)carbonyl]benzyl}-imidazolidin-4-one] | 0.0477 µM
10 | N=C1NC(c2ccccc2)(c2ccccc2)C(=O)N1Cc1cccc(C(=O)N2CCc3cc(F)ccc3C2)c1 [Compound 308, 3-{3-[(6-fluoro-3,4-dihydroisoquinolin-2(1H)-yl)carbonyl]benzyl}-2-imino-5,5-diphenylimidazolidin-4-one] | 0.049 µM
11 | CN(C)C(=O)N1CCN(C(=O)c2cc(F)cc(CN3C(=N)NC(c4ccccc4)(c4ccccc4)C3=O)c2)CC1 [Compound 309, 4-({3-fluoro-5-[(2-imino-5-oxo-4,4-diphenylimidazolidin-1-yl)methyl]phenyl}carbonyl)-N,N-dimethylpiperazine-1-carboxamide] | 0.122 µM
12 | N=C1NC(c2ccccc2)(c2ccccc2)C(=O)N1Cc1cccc(C(=O)N2Cc3cncnc3C2)c1 [Compound 310, 3-[3-(5,7-dihydro-6H-pyrrolo[3,4-d]pyrimidin-6-ylcarbonyl)benzyl]-2-imino-5,5-diphenylimidazolidin-4-one] | 0.0517 µM
13 | CC1c2ccccc2CN1C(=O)c1cccc(CN2C(=N)NC(c3ccc(F)cc3)(c3ccc(F)cc3)C2=O)c1 (stereo not drawn) [Compound 311, 5,5-bis(4-fluorophenyl)-2-imino-3-{3-[(1-methyl-1,3-dihydro-2H-isoindol-2-yl)carbonyl]benzyl} imidazolidin-4-one] | 0.0518 µM
14 | N=C1NC(c2ccccc2)(c2ccccc2)C(=O)N1Cc1cccc(C(=O)N2CCc3ccccc32)c1 [Compound 312, 3-[3-(2,3-dihydro-1H-indol-1-ylcarbonyl)benzyl]-2-imino-5,5-diphenylimidazolidin-4-one] | 0.0521 µM
15 | N=C1NC(c2ccccc2)(c2ccccc2)C(=O)N1Cc1cccc(C(=O)N2CCc3ccncc3C2)c1 [Compound 313, 3-[3-(3,4-dihydro-2,7-naphthyridin-2(1H)-ylcarbonyl)benzyl]-2-imino-5,5-diphenylimidazolidin-4-one] | 0.0521 µM
16 | CC(C)CCC1(c2ccccc2)NC(=N)N(Cc2cccc(C(=O)N3CCC(n4c(=O)[nH]c5ccccc54)CC3)c2)C1=O (stereo not drawn) [Compound 314, 1-{1-[(3-{[2-imino-4-(3-methylbutyl)-5-oxo-4-phenylimidazolidin-1-yl]methyl}phenyl)carbonyl]piperidin-4-yl}-1,3-dihydro-2H-benzimidazol-2-one] | 0.0521 µM
17 | CC(C)CC1(c2ccccc2)NC(=N)N(Cc2cccc(C(=O)N3CCN(c4ccccc4Cl)CC3)c2)C1=O (stereo not drawn) [Compound 315, 3-(3-{[4-(2-chlorophenyl)piperazin-1-yl]carbonyl}benzyl)-2-imino-5-(2-methylpropyl)-5-phenylimidazolidin-4-one] | 0.0523 µM
18 | N=C1NC(c2ccc(F)cc2)(c2ccc(F)cc2)C(=O)N1Cc1cccc(C(=O)N2CCC(n3c(=O)[nH]c4nc(F)ccc43)CC2)c1 [Compound 316, 1-{1-[(3-{[4,4-bis(4-fluorophenyl)-2-imino-5-oxoimidazolidin-1-yl]methyl}phenyl)carbonyl]piperidin-4-yl}-5-fluoro-1,3-dihydro-2H-imidazo[4,5-b]pyridin-2-one] | 0.0529 µM
19 | N=C1NC(c2ccc(F)cc2)(c2ccc(F)cc2)C(=O)N1Cc1cccc(C(=O)N2Cc3ccc(C(F)(F)F)cc3C2)c1 [Compound 317, 5,5-bis(4-fluorophenyl)-2-imino-3-(3-{[5-(trifluoromethyl)-1,3-dihydro-2H-isoindol-2-yl]carbonyl}benzyl)-imidazolidin-4-one] | 0.0549 µM
20 | CC(C)CC1(c2ccccc2)NC(=N)N(Cc2cccc(C(=O)N3CCc4ccccc4C3)c2)C1=O (stereo not drawn) [Compound 318, 3-[3-(3,4-dihydroisoquinolin-2(1H)-ylcarbonyl)benzyl]-2-imino-5-(2-methyl-propyl)-5-phenylimidazolidin-4-one] | 0.0562 µM
21 | N=C1NC(c2ccc(F)cc2)(c2ccc(F)cc2)C(=O)N1Cc1cccc(C(=O)N2CCC(n3c(=O)oc4ccccc43)CC2)c1 [Compound 319, 3-{1-[(3-{[4,4-bis(4-fluorophenyl)-2-imino-5-oxoimidazolidin-1-yl]methyl}phenyl)carbonyl]piperidin-4-yl}-1,3-benzoxazol-2(3H)-one] | 0.0562 µM
22 | CCCC1(c2ccccc2)NC(=N)N(Cc2cccc(C(=O)N3CCN(c4ncccn4)CC3)c2)C1=O (stereo not drawn) [Compound 320, 2-imino-5-phenyl-5-propyl-3-{3-[(4-pyrimidin-2-ylpiperazin-1-yl)carbonyl]benzyl} imidazolidin-4-one] | 0.0567 µM
23 | CC(C)CC1(c2ccccc2)NC(=N)N(Cc2cccc(C(=O)N3CCN(c4ccccn4)CC3)c2)C1=O (stereo not drawn) [Compound 321, 2-imino-5-(2-methylpropyl)-5-phenyl-3-{3-[(4-pyridin-2-ylpiperazin-1-yl)carbonyl]benzyl} imidazolidin-4-one] | 0.0568 µM
24 | CC1c2cc(Cl)c(Cl)cc2CN1C(=O)c1cccc(CN2C(=N)NC(c3ccccc3)(c3ccccc3)C2=O)c1 (stereo not drawn) [Compound 322, 3-{3-[(5,6-dichloro-1-methyl-1,3-dihydro-2H-isoindol-2-yl)carbonyl]benzyl}-2-imino-5,5-diphenylimidazolidin-4-one] | 0.0569 µM
25 | CC(=O)N1CCN(C(=O)c2cc(F)cc(CN3C(=N)NC(c4ccccc4)(c4ccccc4)C3=O)c2)CC1 [Compound 323, 3-{3-[(4-acetylpiperazin-1-yl)carbonyl]-5-fluorobenzyl}-2-imino-5,5-diphenylimidazolidin-4-one] | 0.057 µM
26 | N=C1NC(c2ccccc2)(c2ccccc2)C(=O)N1Cc1cccc(C(=O)N2CCN(c3ccccc3)CC2)c1 [Compound 324, 2-imino-5,5-diphenyl-3-{3-[(4-phenylpiperazin-1-yl)carbonyl]benzyl} imidazolidin-4-one] | 0.0577 µM
27 | C[C@@H](c1cccc(C(=O)N2Cc3ccccc3C2)c1)N1C(=N)NC(c2ccc(F)cc2)(c2ccc(F)cc2)C1=O [Compound 325, 3-{(1S)-1-[3-(1,3-dihydro-2H-isoindol-2-ylcarbonyl)phenyl]ethyl}-5,5-bis(4-fluorophenyl)-2-iminoimidazolidin-4-one] | 0.0585 µM
28 | CC(C)NC(=O)N1CCN(C(=O)c2cccc(CN3C(=N)NC(c4ccccc4)(c4ccccc4)C3=O)c2)CC1 [Compound 326, 4-({3-[(2-imino-5-oxo-4,4-diphenylimidazolidin-1-yl)methyl]phenyl}carbonyl)-N-(1-methylethyl) piperazine-1-carboxamide] | 0.0594 µM
29 | CN(C)C(=O)c1nc2n(c1Cl)CCN(C(=O)c1cccc(CN3C(=N)NC(c4ccccc4)(c4ccccc4)C3=O)c1)C2 [Compound 327, 3-chloro-7-({3-[(2-imino-5-oxo-4,4-diphenylimidazolidin-1-yl)methyl]phenyl}carbonyl)-N,N-dimethyl-5,6,7,8-tetrahydroimidazo[1,2-a]pyrazine-2-carboxamide] | 0.0642 µM
30 | CC(C)C[C@]1(c2ccccc2)NC(=N)N([C@H](C)c2cccc(C(=O)N3CCN(C)C(=O)C3)c2)C1=O [Compound 328, 4-[(3-{(1R)-1-[2-imino-4-(2-methylpropyl)-5-oxo-4-phenylimidazolidin-1-yl]ethyl}phenyl)carbonyl]-1-methylpiperazin-2-one] | 0.0648 µM
